The values below come from patent US20130237557A1, “TREATMENT” (UCL BUSINESS PLC, priority 2010, published 2013).

“Also recorded” adds a separate entry of the source.

Assay [1] concerns bile duct ligated (BDL) rat. As to the kind of experiment: Brain water content in BDL rats. It counts as in vivo. The settings on record: vs untreated BDL. The source says: (§1) These experiments utilised an established animal model of cirrhosis, the bile duct ligated (BDL) rat. BDL rats may be generated by methods known in the art. For example, male Sprague-Dawley rats (200-250 g) may be used for this procedure. Following anaesthetisation, a mid-line laparotamy may be performed, the bile duct exposed, triply ligated with 4.0 silk suture, and severed between the second and third ligature. The wound is then closed in layers with absorbable suture, and the animal allowed to recover in a quiet room before being returned to the animal storage facility.
(§2) 29 bile duct ligated rats and 17 sham operated rats were studied at the end of four weeks. The animals were randomised to receive a placebo (saline) or an alpha 2a antagonist (BRL 44408, Sigma, UK). The dose applied was 10 mgs/Kg by sub cutaneous injection: two doses were delivered 24 hours prior to study.
The brain water content signifies the amount of brain swelling that occurs as a result of inflammation in the brain.

Assay [2] has as its system bile duct ligated (BDL) rat. As to the kind of experiment: Haemodynamics in bile duct ligated (BDL) rats treated with alpha 2a antagonist. It counts as in vivo. The settings on record: for mean arterial pressure (MAP): two doses 24 hours prior to study, vs placebo/untreated BDL; for hepatic arterial blood flow: vs BDL treated with saline, Transonic flow probe.
Excerpt: as §1, §2
(§3) Mean arterial pressure was measured via a transducer through the left carotid artery. Portal pressure readings were taken by direct puncture of portal vein and transducer. Portal vein and hepatic artery flow measurements were done with a transonic flow probe and meter. All measurements were done in triplicates and recorded in data collection sheets.
(§4) Data are shown as median (range) or mean±standard error (SEM). Two tailed unpaired t-test was used to define difference between the means of normally distributed data of equal variance. For data that was not equally distributed, a Mann-Whitney test was used. Comparison of multiple groups was by analysis of variance (ANOVA) with a Bonferroni correction for multiple comparison.

Assay [3] concerns bile duct ligated (BDL) rat. Kind of assay: Plasma biochemistry in BDL rats (colorimetry, Cobas Integra). It counts as in vivo.
Excerpt: as §1, §2
(§5) Plasma biochemistry was measured by colorimetry using a Cobas Integra. Alpha 2a adrenergic receptor (ADRA 2a) and Nuclear Factor κ B (NFκB) protein expression were assessed by western blotting. ADRA2a expression was determined by immunohistochemistry.
as §4

Assay [4] relates to sham operated rat. As to the kind of experiment: Haemodynamics in sham operated rats treated with alpha 2a antagonist. It is filed as in vivo. As to the method:
as §2, §3, §4

Assay [5] has as its system sham operated rat. Kind of assay: Plasma biochemistry in sham operated rats (colorimetry, Cobas Integra). It is filed as in vivo. The settings on record: sham rats treated vs sham operated rats. The method, then:
as §2, §5, §4

In assay [6] the test system is Nuclear Factor κ B (NFκB). As to the kind of experiment: NFκB protein expression in liver tissue of BDL rats by western blotting. It is filed as in vivo, rat. Conditions: vs untreated BDL.
Excerpt: as §1, §2, §5
The protein expression was assessed by the western blotting technique. NFkB is an important regulator of cell signalling pathways including apoptosis and inflammation.
For orientation: A western blot detects proteins with antibodies after separation by electrophoresis.

Regarding `CC1c2ccccc2CN1CC1=NCCN1` (centres unmarked) [BRL 44408, 2-[(4,5-Dihydro-1H-imidazol-2-yl)methyl]-2,3-dihydro-1-methyl-1H-isoindole], in assay [1], the brain water content result is given as “significantly decreased; also recorded: reduced”. The “mean arterial pressure (MAP)” value in assay [2] (BDL rats, 10 mgs/Kg sub cutaneous) is listed as “significantly improved; also recorded: increased”; in assay [2] (BDL rats, 10 mgs/Kg sub cutaneous, listed as ADRA2a antagonist), “significant increase”; with sham operated rat [4] (sham operated rats, 10 mgs/Kg sub cutaneous, treated vs untreated sham) it was “no difference”. Moreover, the portal pressure in assay [2] (BDL rats, 10 mgs/Kg sub cutaneous, two doses, treated group value (placebo 18.0±3.7), p<0.001) is recorded as 11.4±3.4 mmHg; in assay [2] (BDL rats, vs BDL rats treated with saline, change in words), “significantly reduced; also recorded: lowered”; in the assay on sham operated rat [4] (sham rats treated vs saline), “no difference”. Also, the cardiac output entry in assay [2] (BDL rats, heart rate x stroke volume from echocardiogram, vs untreated BDL) is recorded as “improved significantly”. The intra hepatic resistance is on record as 0.5±0.1 mmHg/ml/min in assay [2] (BDL rats, post treatment value (untreated 1.1±0.2), p<0.05, portal pressure divided by hepatic blood flow); “significantly reduced; also recorded: lowered” in assay [2] (BDL rats, vs untreated BDL, change in words); “no difference” in the assay with sham operated rat [4] (sham rats treated vs sham rats). Besides, the “hepatic arterial blood flow” value in assay [2] (BDL rats) was “markedly increased”; in assay [2] (BDL rats, listed as BRL44408), “improved”; in the assay with sham operated rat [4] (sham operated rats, vs sham treated with saline) it was “improvement”. In assay [2] (treated group vs placebo), the “portal venous blood flow” value was “without significant change”. Further, the “liver specific alanine aminotransferase (ALT)” value in assay [3] (p=0.5) is “non significant increase”. For the same molecule, in assay [3] (vs untreated BDL), the plasma ammonia result is listed as “trend towards reduction; also recorded: reduced”. Besides, the “plasma aspartate aminotransaminase (AST)” value in assay [3] (vs untreated BDL) is reported as “significant reduction; also recorded: reduced”. Further, the plasma lactate entry is “significant reduction” in assay [3] (vs untreated BDL) and “significantly reduced” in assay [3] (vs untreated BDL, listed as BRL). In addition, the plasma creatinine entry in assay [3] (vs untreated BDL, marker for renal function) was “trend towards reduction; also recorded: improved; also recorded: reduced”; with sham operated rat [5], “no difference”. For the same molecule, in assay [6], the “NFkB protein expression in the liver tissue” value was “reduced”.
